# Measured values: US20240327359A1, “3-ISOXAZOLIDINONE COMPOUND, PREPARATION METHOD, HERBICIDAL COMPOSITION AND APPLICATION THEREOF” (QINGDAO KINGAGROOT CHEMICAL COMPOUND CO., LTD., priority 2021, published 2024)
# Test system: weeds
# Test: Activity test of the compositions, soil sealing treatment
# Assay type: in vivo
# Outline: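 Pre-emergence soil spray at 450 kg/ha, 0.3 MPa, applied 72 h after sowing pre-germinated seeds, 20 seeds per pot, 4 pots, 4 repeats; actives in acetone diluted with 0.10% Tween-80. Greenhouse, 20 to 30° C; surviving weed fresh weight measured 21 days after treatment.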
smiles,measurement,setting,value
CC1(C)CON(Cc2ccc(Cl)cc2Br)C1=O [Compound 1],Control effect (%) of A applied alone (A),"Alopecurus japonicus, soil (S), A 8 g a.i./mu",39.4%
same,Control effect (%) of A applied alone (A),"Amaranthus retroflexus, soil (S), A 8 g a.i./mu",37.3%
same,Control effect (%) of A applied alone (A),"Commelina communis, soil (S), A 8 g a.i./mu",44.1%
same,Control effect (%) of A applied alone (A),"Cyperus difformis, soil (S), A 8 g a.i./mu",34.5%
same,Control effect (%) of A applied alone (A),"Digitaria sanguinalis, soil (S), A 8 g a.i./mu",40.3%
same,Control effect (%) of A applied alone (A),"Echinochloa crusgalli, soil (S), A 8 g a.i./mu",50.7%
same,Control effect (%) of A applied alone (A),"Echinochloa crusgalli, soil treatment (S), A at 8 g a.i./mu, fresh weight inhibition 21 days after treatment",50.7%
same,Control effect (%) of A applied alone (A),"Galium aparine, soil (S), A 8 g a.i./mu",37.2%
same,Control effect (%) of A applied alone (A),"Lolium multiflorum, soil (S), A 8 g a.i./mu",53.2%
same,Control effect (%) of A applied alone (A),"Potamogeton distinctus, soil (S), A 8 g a.i./mu",35.9%
same,Control effect (%) of A applied alone (A),"Veronica didyma, soil (S), A 8 g a.i./mu",48.9%
